Reference: patent publication US20150344427A1 (EPIZYME, INC., priority 2012, published 2015)

System: H3K27 trimethylation in WSU-DLCL2 cells
Test: WSU-DLCL2 Methylation Assay (H3K27me3 ELISA)
Type: cell-based
Details: Homo sapiens, WSUDLCL2, 96 hours incubation, H3K27me3 normalised to total Histone H3
Description: WSU-DLCL2 suspension cells were purchased from DSMZ (German Collection of Microorganisms and Cell Cultures, Braunschweig, Germany). RPMI/Glutamax Medium, Penicillin-Streptomycin, Heat Inactivated Fetal Bovine Serum, and D-PBS were purchased from Life Technologies, Grand Island, N.Y., USA. Extraction Buffer and Neutralization Buffer (5×) were purchased from Active Motif, Carlsbad, Calif., USA. Rabbit anti-Histone H3 antibody was purchased from Abcam, Cambridge, Mass., USA. Rabbit anti-H3K27me3 and HRP-conjugated anti-rabbit-IgG were purchased from Cell Signaling Technology, Danvers, Mass., USA. TMB “Super Sensitive” substrate was sourced from BioFX Laboratories, Owings Mills, Md., USA. IgG-free Bovine Serum Albumin was purchased from Jackson ImmunoResearch, West Grove, Pa., USA. PBS with Tween (10×PBST) was purchased from KPL, Gaithersburg, Md., USA. Sulfuric Acid was purchased from Ricca Chemical, Arlington, Tex., USA. Immulon ELISA plates were purchased from Thermo, Rochester, N.Y., USA. V-bottom cell culture plates were purchased from Corning Inc., Corning, N.Y., USA. V-bottom polypropylene plates were purchased from Greiner Bio-One, Monroe, N.C., USA.
WSU-DLCL2 suspension cells were maintained in growth medium (RPMI 1640 supplemented with 10% v/v heat inactivated fetal bovine serum and 100 units/mL penicillin-streptomycin) and cultured at 37° C. under 5% CO2 Under assay conditions, cells were incubated in Assay Medium (RPMI 1640 supplemented with 20% v/v heat inactivated fetal bovine serum and 100 units/mL penicillin-streptomycin) at 37° C. under 5% CO2 on a plate shaker.
WSU-DLCL2 cells were seeded in assay medium at a concentration of 50,000 cells per mL to a 96-well V-bottom cell culture plate with 200 μL per well. Compound (1 μL) from 96 well source plates was added directly to V-bottom cell plate. Plates were incubated on a titer-plate shaker at 37° C., 5% CO2 for 96 hours. After four days of incubation, plates were spun at 241×g for five minutes and medium was aspirated gently from each well of cell plate without disturbing cell pellet. Pellet was resuspended in 200 μL DPBS and plates were spun again at 241×g for five minutes. The supernatant was aspirated and cold (4° C.) Extraction buffer (100 μL) was added per well. Plates were incubated at 4° C. on orbital shaker for two hours. Plates were spun at 3427×g×10 minutes. Supernatant (80 μL per well) was transferred to its respective well in 96 well V-bottom polypropylene plate. Neutralization Buffer 5× (20 μL per well) was added to V-bottom polypropylene plate containing supernatant. V-bottom polypropylene plates containing crude histone preparation (CHP) were incubated on orbital shaker x five minutes. Crude Histone Preparations were added (2 μL per well) to each respective well into duplicate 96 well ELISA plates containing 100 μL Coating Buffer (1×PBS+BSA 0.05% w/v). Plates were sealed and incubated overnight at 4° C. The following day, plates were washed three times with 300 μL per well 1×PBST. Wells were blocked for two hours with 300 μL per well ELISA Diluent ((PBS (1×) BSA (2% w/v) and Tween20 (0.05% v/v)). Plates were washed three times with 1×PBST. For the Histone H3 detection plate, 100 μL per well were added of anti-Histone-H3 antibody (Abcam, ab1791) diluted 1:10,000 in ELISA Diluent. For H3K27 trimethylation detection plate, 100 μL per well were added of anti-H3K27me3 diluted 1:2000 in ELISA diluent. Plates were incubated for 90 minutes at room temperature. Plates were washed three times with 300 μL 1×PBST per well. For Histone H3 detection, 100 μL of HRP-conjugated anti-rabbit IgG antibody diluted to 1:6000 in ELISA diluent was added per well. For H3K27me3 detection, 100 μL of HRP conjugated anti-rabbit IgG antibody diluted to 1:4000 in ELISA diluent was added per well. Plates were incubated at room temperature for 90 minutes. Plates were washed four times with 1×PBST 300 μL per well. TMB substrate 100 μL was added per well. […]

Compared with `CCN(c1cc(Cl)cc(C(=O)NCc2c(C)[nH]c(C)cc2=O)c1C)[C@H]1CC[C@H](N(C)C)CC1` [Compound 1, 5-chloro-N-((2,6-dimethyl-4-oxo-1,4-dihydropyridin-3-yl)methyl)-3-(((trans)-4-(dimethylamino)cyclohexyl)(ethyl)amino)-2-methylbenzamide], `CCN(c1cc(Cl)cc(C(=O)NCc2c(C)n(C)c(C)cc2=O)c1C)[C@H]1CC[C@H](N(C)C)CC1` [Compound 86] is higher in IC50: 8.44 µM for the first, > 50 µM for the second.

Compared with `CCn1c(C)cc(=O)c(CNC(=O)c2cc(Cl)cc(N(CC)[C@H]3CC[C@H](N(C)C)CC3)c2C)c1C` [Compound 87], `CCN(c1cc(-c2cnn(C)c2)cc(C(=O)NCc2c(Cl)[nH]c(C)cc2=O)c1C)[C@H]1CC[C@H](N(C)C)CC1` [Compound 89] is lower in IC50: > 50 µM for the first, 5.9 µM for the second. The second is the more potent here.

`CCN(c1cc(-c2ccc(COC)nc2)cc(C(=O)NCc2c(Cl)[nH]c(C)cc2=O)c1C)[C@H]1CC[C@H](N(C)C)CC1` [Compound 88] and `CCN(c1cc(-c2ccc(C)nc2)cc(C(=O)NCc2c(Cl)[nH]c(C)cc2=O)c1C)[C@H]1CC[C@H](N(C)C)CC1` [Compound 90] are within 1.5-fold of each other in IC50: 2.4 µM for the first, 2.7 µM for the second.

`CCN(c1cc(-c2cnc(C)cn2)cc(C(=O)NCc2c(Cl)[nH]c(C)cc2=O)c1C)[C@H]1CC[C@H](N(C)C)CC1` [Compound 91] and `CCN(c1cc(-c2ccc(OCCOC)cc2)cc(C(=O)NCc2c(Cl)[nH]c(C)cc2=O)c1C)[C@H]1CC[C@H](N(C)C)CC1` [Compound 92] are within 1.5-fold of each other in IC50: 3.3 µM for the first, 3.9 µM for the second.

Compared with `CCN(c1cc(-c2ccc(OCCOC)cc2)cc(C(=O)NCc2c(C)[nH]c(C)cc2=O)c1C)[C@H]1CC[C@H](N(C)C)CC1` [Compound 93], `CCCN(c1cc(-c2ccc(OCCOC)cc2)cc(C(=O)NCc2c(C)[nH]c(C)cc2=O)c1C)[C@H]1CC[C@H](N(C)C)CC1` [Compound 94] is 3-fold higher in IC50: 1.7 µM for the first, 5.1 µM for the second.

`CCN(c1cc(-c2ccc(OCCOC)cc2)cc(C(=O)NCc2c(C)[nH]c(C)cc2=O)c1C)[C@H]1CC[C@H](N(C)CCOC)CC1` [Compound 100] was tested, and the IC50 was 7.5 µM.
